Earlier results as cited in patent US11021501B2, “Creatine phosphate analog prodrugs, compositions and methods of use thereof” (Farmington Pharma Development, priority 2015, dated 2021).
Like-named read-outs stand apart in the source and are kept apart here.

Assays:
[1] = test system: creatine phosphate levels
[2] = animals fed a diet containing up to 1%

In the case of `CN(CC(=O)O)C(=N)NP(=O)(O)O` [Creatine phosphate, creatine phosphate], the adverse side effects (patients with cardiac diseases, intravenous injection up to 8 gm/day) is given as “without adverse side effects”.

In the case of `CN(CC(=O)O)C(=N)N.O` [creatine monohydrate], the adverse side effects (athletes and body builders, 2-3 gm/day) is given as “without adverse side effects”.

For `CN(CC(=O)O)C(=N)N` [creatine], the “overall increase of creatine phosphate levels” value ([1]; creatine supplementation over weeks) is given as less than 50%, the “duration of increase in tissue creatine phosphate levels” value ([1]; following oral creatine supplementation) is given as greater than 14 days and the “increase of cerebral creatine phosphate” value ([1]; healthy volunteers, oral creatine administration) is given as “about 10%”.

In the case of `NC1=NCCN1CC(=O)O` [cyclocreatine], the adverse effects [2] is given as “do not exhibit adverse effects”.
